These results are taken from patent US4062964A, “Antifertility-combinations” (Ciba-Geigy Corporation, priority 1976, dated 1977).

Read-outs that look alike come from different tables or passages of the source.

Assay [1] relates to pregnant rats. Put plainly: Combined treatment AGP and PGF2α, resorption of fetuses in pregnant rats. The class given is in vivo, rat. On the procedure:
(§1) The efficacy of the compositions according to the invention is demonstrable in animal tests, using advantageously mammals, such as rats, hamsters or baboons, as test objects. Thus, for example, adult female rats weighing 190-250 grams are housed in a "reverse room" as described in Contraception 3, 347 (1971), with the exception that the animals have 14 hours of light between 5 P.M. and 7 A.M., and 10 hours of darkness from 7 A.M. to 5 P.M. They are placed with adult male rats from 10 A.M. to 2 P.M. (i.e. "their midnight" ± 2 hours) following which vaginal smears are obtained.
(§2) Said antifertility compounds may be administered orally, e.g. in suspension with the excipient compraising 3% (by weight) of carboxymethylcellulose, 1.05% methylcellulose, 0.8% sodium chloride, 0.1% polysorbate 80 and 0.002% thimerosal in water, as a single dose on day 5 of pregnancy (i.e. the day after implantation unless otherwise specified). Prostaglandins may be injected subcutaneously twice (9 A.M. and 3 P.M.) on days 4-7 in a conventional 0.1M phosphate buffer at pH = 7.45. Aminoglutethimide phosphate can also be administered in aqueous solution orally, subcutaneously, intraperitoneally or intravenously. The rats are sacrificed on day 10 or 11 of pregnancy and the uterus is examined for living and dead fetuses and implantation sites. The terms "abortion" and "resorption" are used interchangeably because by day 10 or 11 the uterine scars resulting from either event are indistinguishable by gross inspection.

The subject of another assay is progesterone levels. Put plainly: Progesterone levels in rats after aminoglutethimide phosphate. The class given is in vivo, rat. The conditions noted are these: large single or daily oral doses.
The subject of assay [2] is pregnant rats. Put plainly: Abortifacient activity of AGP in pregnant rats (3 doses on day 9; large single or daily oral doses). It counts as in vivo, rat. As to the method: as §1, §2
Assay [3] concerns pregnant Lakeview hamsters. The assay can be described thus: Antifertility effect (percent of litter living) in pregnant hamsters, AGT p.o. and TPF s.c. It counts as in vivo, hamster. On the procedure:
Said active ingredients are administered in admixture with the following excipients:
AGT + 3% corn starch + 5% polyethylene glycol 400 + 1 drop of polysorbate 80 per 10 ml of distilled water.
TPF 10 mg per 0.1 ml of ethanol, which solution is diluted with the buffer prepared from 19 ml of 0.2M aqueous monosodium phosphate and 81 ml of 0.2M aqueous disodium phosphate, corrected with the latter to the pH = 7.4.
(§3) Said compositions are administered to pregnant Lakeview hamsters arriving at day 1 postcoitus, which are maintained in a day-night reversed room (11 A.M. to 11 P.M.). Food and water is given ad libitum. Six hamsters per group are used (3 per cage) and each test is carried out with a control group receiving said excipients only. The orally administered AGT is given for 3 consecutive days starting on day 3 postcoitus, at a rate of 5 ml/kg body weight, and these animals are sacrificed on day 10 to 12 postcoitus. The subcutaneously administered TPF is given once on day 5 postcoitus only, at a volume of 0.2 ml per animal, and these animals are sacrificed on day 8 postcoitus. The uterus of each animal is inspected and implantation sites are counted and recorded according to viable or resorbed fetuses. Percent inhibition is determined by comparison of treated groups over the control group.

In assay [4] the test system is pregnant rats. The assay can be described thus: Resorption of embryos by s.c. prostaglandins in pregnant rats. The class given is in vivo, rat. Conditions: for Fetuses / Resorptions / Total Implants: days 4-7. On the procedure:
as §1, §2
However, when the compounds were injected twice daily (9 a.m. and 3 p.m.) in adequate doses on days 4-7 of gestation, implantation occured at the normal time but this was then followed by resorption of the embryos. […]

The subject of a further assay is pregnant hamsters. The assay can be described thus: Antifertility ED50 in pregnant hamsters. The conditions noted are these: for ED50: Mesocricetus auratus. It counts as in vivo, hamster. On the procedure:
as §3

The test system of a further assay is rats. The assay can be described thus: Activity of TPF in rats. The conditions noted are these: rat, in vivo.
The next assay has as its system rabbits. Put plainly: Activity of TPF in rabbits. Conditions: rabbit, in vivo.
Another assay concerns progesterone secretion. Conditions: pregnant and non-pregnant animals and human beings, background; cited from earlier work.
The test system of assay [5] is conversion of cholesterol to pregnenolone. The conditions noted are these: background; cited from earlier work.
[6] abbreviates: 100 mg/kg × 3 on day 9, i.p., 10 rats.
Where [7] appears, read: 100 mg/kg × 3 on day 9, i.v., 3 rats.
[8] abbreviates: 100 mg/kg × 3 on day 9, p.o., 5 rats.
[9] abbreviates: sc, pregnant hamsters, approximative, read-out: ED50 s.c. for antifertility effects.

`CCC1(c2ccc(N)cc2)CCC(=O)NC1=O` (stereo not shown) [AGP, aminoglutethimide phosphate]: the “resorption of fetuses in rats” value with pregnant rats [1] (AGP 30 mg/kg s.c. days 3-5 of pregnancy) is given as “did not induce resorption of fetuses”. Moreover, the Fetuses in the assay on pregnant rats [1] (AGP 30 mg/kg s.c., days 3-5) turned out to be 12.2 ± 1.8; with pregnant rats [2] (setting [6]), 4.4 ± 2.2; in the assay with pregnant rats [2] (setting [7]), 4.3 ± 4.3; with pregnant rats [2] (setting [8]) it was 13.8 ± 0.9. Moreover, the Resorptions is given as 1.6 ± 1.1 in the assay with pregnant rats [1] (AGP 30 mg/kg s.c., days 3-5); 8.9 ± 2.0 in the assay on pregnant rats [2] (setting [6]); 10.3 ± 4.7 in the assay with pregnant rats [2] (setting [7]); 0.4 ± 0.4 in the assay with pregnant rats [2] (setting [8]). The “Total Implants” value with pregnant rats [1] (AGP 30 mg/kg s.c., days 3-5) was 13.8 ± 1.0; in the assay with pregnant rats [2] (setting [6]) it was 13.3 ± 0.6; in the assay with pregnant rats [2] (setting [7]), 14.7 ± 0.7; in the assay with pregnant rats [2] (setting [8]) it was 14.2 ± 0.7. In the assay with progesterone levels, the “decrease of progesterone levels” value was “more than 70%”. In addition, in the assay on pregnant rats [2] (given every 8 hours, i.v. versus p.o., rats), the “abortifacient on day 9” value is reported as “abortifacient on day 9 when given every 8 hours i.v., but not p.o”. Moreover, the abortifacient activity entry in the assay with pregnant rats [2] (large single or daily oral doses, rats) is “very resistant to the abortifacient activity”.
Regarding `CC[C@]1(c2ccc(N)cc2)CCC(=O)NC1=O.CC[C@]1(c2ccc(N)cc2)CCC(=O)NC1=O.O.O=C(O)C(O)C(O)C(=O)O.O=C(O)C(O)C(O)C(=O)O` [AGT, d-aminoglutethimide d-tartrate hemihydrate], in [3] (500 mg/kg/p.o.), the “effective as antifertility agent” value is 100%. Moreover, the “PERCENT OF LITTER LIVING” value in [3] (AGT 100 mg/kg p.o. day 3-5, TPF 0) was 90%; in assay [3] (AGT 250 mg/kg p.o. day 3-5, TPF 0) it was 68%; in assay [3] (AGT 500 mg/kg p.o. day 3-5, TPF 0) it was 0%.
As to `CCCCC[C@H](O)/C=C/[C@H]1[C@H](O)CC(=O)[C@@H]1CCCCCCC(=O)O` [PGE1], in the assay with pregnant rats [4] (200 μg/rat s.c. × 2 daily), the Fetuses came to 10.8 ± 2.7, the Resorptions worked out at 0 and the “Total Implants” value was found to be 10.8 ± 2.7. In the assay on pregnant rats [4] (400 μg/rat s.c. × 2 daily), the Fetuses was 10.6 ± 2.7, the Resorptions was determined as 0 and the “Total Implants” value came out at 10.6 ± 2.7. Moreover, in the assay on pregnant rats [4] (800 μg/rat s.c. × 2 daily), the Fetuses is listed as 0, the Resorptions is given as 7.0 ± 1.9 and the “Total Implants” value worked out at 7.0 ± 1.9.
Consider `CCCCC[C@H](O)/C=C/[C@H]1[C@H](O)CC(=O)[C@@H]1C/C=C\CCCC(=O)O` [PGE2], for which, in the assay with pregnant rats [4] (200 μg/rat s.c. × 2 daily), the Fetuses is given as 10.6 ± 2.8, the Resorptions is given as 0 and the “Total Implants” value came out at 10.6 ± 2.8. In the assay on pregnant rats [4] (400 μg/rat s.c. × 2 daily), the Fetuses came to 6.6 ± 2.8, the Resorptions is given as 0 and the “Total Implants” value came to 6.6 ± 2.8. Further, in the assay on pregnant rats [4] (800 μg/rat s.c. × 2 daily), the Fetuses is reported as 0, the Resorptions came out at 5.6 ± 2.6 and the “Total Implants” value worked out at 5.6 ± 2.6. Also, the ED50 in the assay on pregnant hamsters (setting [9]) stood at 2 mg/kg.
Turning to `CCCCC[C@H](O)/C=C/[C@@H]1[C@@H](C/C=C\CCCC(=O)O)[C@@H](O)C[C@H]1O` [PGF2α, prostaglandin F2α], the “resorption of fetuses in rats” value in the assay on pregnant rats [1] (PGF2α 1 mg/kg s.c. on day 5 of pregnancy) is reported as “did not induce resorption of fetuses”. The Fetuses with pregnant rats [1] (PGF2α 1 mg/kg s.c., day 5) is given as 15.4 ± 0.6; in the assay with pregnant rats [4] (100 μg/rat s.c. × 2 daily), 14.2 ± 0.7; in the assay on pregnant rats [4] (200 μg/rat s.c. × 2 daily), 14.4 ± 0.2; in the assay with pregnant rats [4] (400 μg/rat s.c. × 2 daily), 0. Also, the Resorptions with pregnant rats [1] (PGF2α 1 mg/kg s.c., day 5) is listed as 0; with pregnant rats [4] (100 μg/rat s.c. × 2 daily), 0; in the assay on pregnant rats [4] (200 μg/rat s.c. × 2 daily) it was 0.2 ± 0.2; with pregnant rats [4] (400 μg/rat s.c. × 2 daily), 9.6 ± 2.6. In addition, the “Total Implants” value in the assay on pregnant rats [1] (PGF2α 1 mg/kg s.c., day 5) is listed as 15.4 ± 0.6; in the assay on pregnant rats [4] (100 μg/rat s.c. × 2 daily), 14.2 ± 0.7; in the assay with pregnant rats [4] (200 μg/rat s.c. × 2 daily) it was 14.6 ± 0.2; in the assay with pregnant rats [4] (400 μg/rat s.c. × 2 daily), 9.6 ± 2.6. Besides, the “relative activity versus PGE1 and PGE2” value in the assay with pregnant rats [4] (s.c. twice daily, days 4-7, rats) is “about twice as active as PGE1 and PGE2”. Also, the ED50 in the assay on pregnant hamsters (setting [9]) came out at 0.1 mg/kg; in the assay with pregnant hamsters (oral, pregnant hamsters, approximative, read-out: ED50 oral for antifertility effects) it was 7.5 mg/kg.
In the case of `O=C(O)CCCCCCC1OCC(O)C1/C=C/C(O)COc1cccc(C(F)(F)F)c1` (stereo not drawn) [TPF, 7-[3α-(3β-hydroxy-4-(m-trifluoromethylphenoxy)-1-trans-butenyl)-4β-hydroxy-tetrahydro-2β-furyl]-heptanoic acid], the activity in rats result in the assay on rats is “active in rats”. Besides, the “effective as antifertility agent” value in [3] (25 μg/animal/s.c.) turned out to be 64%. Also, the “PERCENT OF LITTER LIVING” value in [3] (TPF 5 μg s.c. day 5, AGT 0 mg) amounted to 98%; in assay [3] (TPF 10 μg s.c. day 5, AGT 0 mg), 70%; in assay [3] (TPF 25 μg s.c. day 5, AGT 0 mg) it was 36%. Moreover, the “oral potency relative to PGF2α” value with pregnant hamsters (oral, more potent than PGF2α) is recorded as 10-20 times. Further, the oral antifertility effectiveness result with pregnant hamsters (oral, pregnant hamsters) was “orally effective”. Also, the “ED50 oral for antifertility effects” value in the assay on pregnant hamsters (oral, pregnant hamsters, approximative) is on record as 0.31 mg/kg. The “ED50 s.c. for antifertility effects” value with pregnant hamsters (s.c., pregnant hamsters, approximative) is recorded as 0.1 mg/kg. Further, the activity in rabbits entry in the assay with rabbits is “active in rats and rabbits”.
Turning to `CCC1(c2ccc(N)cc2)CCC(=O)NC1=O` (stereo not shown) [aminoglutethimide], in the assay on progesterone secretion, the progesterone secretion entry is recorded as “inhibits progesterone secretion”. Also, the “conversion of cholesterol to pregnenolone in the steroid pathway” value in assay [5] is reported as “blocks the conversion of cholesterol to pregnenolone”.
